How the values were obtained:
[1] = molecular target: T1, Ubiquitin carboxyl-terminal hydrolase 47 (Homo sapiens, UniProt Q96K76); assay: Inhibition of USP47 (unknown origin)
T1 sequence (Q96K76 whole entry): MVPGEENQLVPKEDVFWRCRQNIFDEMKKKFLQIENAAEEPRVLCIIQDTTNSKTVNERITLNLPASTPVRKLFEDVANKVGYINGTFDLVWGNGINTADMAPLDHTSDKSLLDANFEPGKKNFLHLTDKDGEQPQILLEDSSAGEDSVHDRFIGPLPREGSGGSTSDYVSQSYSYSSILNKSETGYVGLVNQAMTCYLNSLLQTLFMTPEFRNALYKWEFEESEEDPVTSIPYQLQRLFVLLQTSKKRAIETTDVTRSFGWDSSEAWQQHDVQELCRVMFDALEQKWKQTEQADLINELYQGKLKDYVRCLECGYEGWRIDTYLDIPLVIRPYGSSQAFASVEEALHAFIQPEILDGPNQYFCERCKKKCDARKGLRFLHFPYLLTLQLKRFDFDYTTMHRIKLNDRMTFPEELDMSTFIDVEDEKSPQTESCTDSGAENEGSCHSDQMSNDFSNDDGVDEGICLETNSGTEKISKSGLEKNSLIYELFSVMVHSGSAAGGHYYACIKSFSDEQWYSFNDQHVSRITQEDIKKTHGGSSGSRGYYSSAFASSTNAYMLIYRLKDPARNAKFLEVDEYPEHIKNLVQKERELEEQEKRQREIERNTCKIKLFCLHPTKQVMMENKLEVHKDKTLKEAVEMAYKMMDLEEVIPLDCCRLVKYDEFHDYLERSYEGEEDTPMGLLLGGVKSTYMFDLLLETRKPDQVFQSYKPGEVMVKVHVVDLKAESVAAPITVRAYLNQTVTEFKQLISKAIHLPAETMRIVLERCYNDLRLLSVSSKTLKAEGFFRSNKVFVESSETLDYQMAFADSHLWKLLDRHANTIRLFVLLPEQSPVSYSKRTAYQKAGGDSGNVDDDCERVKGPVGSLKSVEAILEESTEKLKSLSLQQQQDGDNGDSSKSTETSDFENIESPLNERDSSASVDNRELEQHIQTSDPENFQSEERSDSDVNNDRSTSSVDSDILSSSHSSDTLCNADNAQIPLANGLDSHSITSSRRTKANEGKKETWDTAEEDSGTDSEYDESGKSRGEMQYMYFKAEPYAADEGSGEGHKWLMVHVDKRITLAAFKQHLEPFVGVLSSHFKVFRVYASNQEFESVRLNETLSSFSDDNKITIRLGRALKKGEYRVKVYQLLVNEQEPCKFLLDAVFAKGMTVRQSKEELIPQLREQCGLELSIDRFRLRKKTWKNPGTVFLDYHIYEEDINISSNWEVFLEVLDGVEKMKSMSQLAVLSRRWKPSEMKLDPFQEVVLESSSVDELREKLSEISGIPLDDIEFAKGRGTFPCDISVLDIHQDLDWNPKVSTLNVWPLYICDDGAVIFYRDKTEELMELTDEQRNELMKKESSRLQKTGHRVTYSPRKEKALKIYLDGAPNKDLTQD

[2] = molecular target: T2, Ubiquitin carboxyl-terminal hydrolase 7 (Homo sapiens, UniProt Q93009); assay: Inhibition of USP7 (unknown origin) by Ub-PLA2 assay
T2 sequence (Q93009 whole entry): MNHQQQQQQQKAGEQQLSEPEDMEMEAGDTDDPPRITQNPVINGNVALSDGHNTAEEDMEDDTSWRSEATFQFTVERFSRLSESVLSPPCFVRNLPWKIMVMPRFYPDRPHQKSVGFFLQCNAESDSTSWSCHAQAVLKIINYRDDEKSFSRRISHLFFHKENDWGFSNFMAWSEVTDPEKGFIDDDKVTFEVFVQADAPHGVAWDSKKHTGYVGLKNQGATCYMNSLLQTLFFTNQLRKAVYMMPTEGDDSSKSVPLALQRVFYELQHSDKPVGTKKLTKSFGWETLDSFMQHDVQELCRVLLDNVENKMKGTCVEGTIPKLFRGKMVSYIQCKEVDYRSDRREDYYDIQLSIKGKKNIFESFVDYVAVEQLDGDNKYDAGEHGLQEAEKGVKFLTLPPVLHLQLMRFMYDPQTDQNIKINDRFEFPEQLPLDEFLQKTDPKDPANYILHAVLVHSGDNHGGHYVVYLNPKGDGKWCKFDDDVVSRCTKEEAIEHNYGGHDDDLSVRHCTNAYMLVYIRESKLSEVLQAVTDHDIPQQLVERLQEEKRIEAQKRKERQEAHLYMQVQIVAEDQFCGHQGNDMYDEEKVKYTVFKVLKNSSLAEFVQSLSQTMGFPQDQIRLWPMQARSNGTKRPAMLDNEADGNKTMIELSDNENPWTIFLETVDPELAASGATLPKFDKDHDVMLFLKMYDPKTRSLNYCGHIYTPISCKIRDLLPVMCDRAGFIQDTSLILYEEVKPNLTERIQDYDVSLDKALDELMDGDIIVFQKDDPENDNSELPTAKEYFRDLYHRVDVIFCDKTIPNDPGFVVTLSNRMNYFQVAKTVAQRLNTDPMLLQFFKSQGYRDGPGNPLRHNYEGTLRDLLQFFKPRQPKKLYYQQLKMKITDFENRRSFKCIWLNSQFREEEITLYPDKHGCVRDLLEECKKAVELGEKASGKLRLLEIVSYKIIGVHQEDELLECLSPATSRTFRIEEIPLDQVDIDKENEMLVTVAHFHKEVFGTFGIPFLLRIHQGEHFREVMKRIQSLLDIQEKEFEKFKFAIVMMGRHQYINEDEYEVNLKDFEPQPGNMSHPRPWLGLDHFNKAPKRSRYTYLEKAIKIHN

[3] = Inhibition of USP2a (unknown origin); design: species or system Homo sapiens
HCT-116 = assay: Anticancer activity against human HCT-116 cells assessed as cell growth inhibition incubated for 6 days by MTT assay; type: functional; settings: HCT-116, 144 h, time 6 day, read-out: LD50 (the source's name)
[4] = molecular target: T2, Ubiquitin carboxyl-terminal hydrolase 7; assay: Inhibition of human USP7 using UbA10 as substrate incubated for 10 mins by TR-FRET assay
[5] = molecular target: T3, Ubiquitin carboxyl-terminal hydrolase 8 (Homo sapiens, UniProt P40818); assay: Inhibition of human USP8 using Ub-AMC as substrate
T3 sequence (P40818 whole entry): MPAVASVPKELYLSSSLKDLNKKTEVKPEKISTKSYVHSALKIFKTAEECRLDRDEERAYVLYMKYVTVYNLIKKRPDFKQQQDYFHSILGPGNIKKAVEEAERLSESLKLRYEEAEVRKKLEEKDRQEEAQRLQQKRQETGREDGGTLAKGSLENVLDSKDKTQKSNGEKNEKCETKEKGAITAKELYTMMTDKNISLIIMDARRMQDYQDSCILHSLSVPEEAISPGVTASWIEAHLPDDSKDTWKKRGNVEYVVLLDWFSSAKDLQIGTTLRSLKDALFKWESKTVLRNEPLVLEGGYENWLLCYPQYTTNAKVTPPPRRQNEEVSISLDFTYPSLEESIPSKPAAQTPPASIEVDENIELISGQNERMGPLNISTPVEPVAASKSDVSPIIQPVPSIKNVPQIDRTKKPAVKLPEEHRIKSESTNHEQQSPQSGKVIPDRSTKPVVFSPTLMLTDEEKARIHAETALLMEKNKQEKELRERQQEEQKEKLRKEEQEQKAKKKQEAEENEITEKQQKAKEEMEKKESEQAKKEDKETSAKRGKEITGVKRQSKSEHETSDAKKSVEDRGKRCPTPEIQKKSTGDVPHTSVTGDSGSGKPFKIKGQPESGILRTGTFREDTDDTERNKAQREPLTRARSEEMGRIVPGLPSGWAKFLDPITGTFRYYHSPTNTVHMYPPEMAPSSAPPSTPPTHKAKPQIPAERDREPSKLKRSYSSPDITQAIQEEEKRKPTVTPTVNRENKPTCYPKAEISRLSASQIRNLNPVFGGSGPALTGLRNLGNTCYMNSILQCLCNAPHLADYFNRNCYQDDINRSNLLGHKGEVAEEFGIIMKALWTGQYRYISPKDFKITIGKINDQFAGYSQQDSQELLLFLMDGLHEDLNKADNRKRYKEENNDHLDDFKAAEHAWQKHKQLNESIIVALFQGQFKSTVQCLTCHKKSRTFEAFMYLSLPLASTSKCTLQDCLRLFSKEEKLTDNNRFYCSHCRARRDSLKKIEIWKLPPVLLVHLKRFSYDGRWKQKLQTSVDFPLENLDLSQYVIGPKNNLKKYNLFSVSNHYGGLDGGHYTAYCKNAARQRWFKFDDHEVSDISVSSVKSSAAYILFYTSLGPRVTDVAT

[6] = molecular target: T2, Ubiquitin carboxyl-terminal hydrolase 7; assay: Inhibition of human USP7 using Ub-AMC as substrate
[7] = molecular target: T2, Ubiquitin carboxyl-terminal hydrolase 7; assay: Inhibition of human USP7 using ubiquitin-Rho as substrate incubated for 1 hrs
[8] = molecular target: T2, Ubiquitin carboxyl-terminal hydrolase 7; assay: Inhibition of human USP7 using ubiquitin-Rh110 as substrate incubated for 30 mins by Fluorometric plate reader analysis

N#CNc1nc2c(nc1C#N)C(=O)c1ccccc1-2
IC50 [1]: > 100 µM

CC(=O)c1cc([N+](=O)[O-])c(Sc2cccc(Cl)c2)s1
IC50 [2]: 7 µM

COc1nc2c(nc1C#N)C(=O)c1ccccc1-2
IC50 [1]: > 100 µM

C[C@H](CC(=O)NO)[C@H]1CC[C@H]2[C@@H]3CC[C@@H]4C[C@H](O)CC[C@]4(C)[C@H]3CC[C@]12C
IC50 [3]: 9.7 µM | CC50 (HCT-116): 27.8 µM

Nc1ncc(-c2ccc(O)cc2)cc1-c1ccc(O)cc1
IC50 [4]: > 50 µM

N#Cc1nc2c(nc1C#N)-c1ccc(F)cc1C2=O
IC50 [1]: 4.3 µM

N#Cc1nc2c(nc1C#N)-c1cc(Cl)ccc1C2=O
IC50 [5]: 0.133 µM | IC50 [6]: 2.55 µM

N#Cc1nc2c(nc1C#N)-c1ccc(O)cc1C2=O
IC50 [1]: 66 µM

CCCCc1cc([N+](=O)[O-])c(Sc2ccc(Cl)cc2Cl)s1
IC50 [2]: 13.9 µM

C[C@H](CC(=O)NCCS(=O)(=O)O)[C@H]1CC[C@H]2[C@@H]3[C@H](O)C[C@@H]4C[C@H](O)CC[C@]4(C)[C@H]3C[C@H](O)[C@]12C
CC50 (HCT-116): > 50 µM

C[C@H](CC(=O)O)[C@H]1CC[C@H]2[C@@H]3[C@H](O)C[C@@H]4C[C@H](O)CC[C@]4(C)[C@H]3C[C@H](O)[C@]12C
CC50 (HCT-116): > 50 µM

N#Cc1nc2c(nc1C#N)C1(OCCO1)c1ccccc1-2
IC50 [6]: > 100 µM | IC50 [1]: > 100 µM

CCc1cc([N+](=O)[O-])c(Sc2cccc(Cl)c2Cl)s1
IC50 [2]: > 50 µM

CC(=O)c1cc([N+](=O)[O-])c(Sc2ccccc2Cl)s1
IC50 [2]: 12.9 µM

CCc1c(-c2ccc(O)cc2)cnc(N)c1-c1ccc(S(C)(=O)=O)cc1
IC50 [7]: > 63.3 µM

CCc1c(-c2ccc(O)cc2)cnc(N)c1-c1ccc2cn[nH]c2c1
IC50 [4]: 0.61 µM

CC(O)c1cc([N+](=O)[O-])c(Sc2ccc(Cl)cc2Cl)s1 (centres undefined)
IC50 [2]: 20.1 µM

C[C@H](CC(=O)O)[C@H]1CC[C@H]2[C@@H]3CC[C@@H]4CC(=O)CC[C@]4(C)[C@H]3CC[C@]12C
IC50 [3]: 32 µM | CC50 (HCT-116): > 50 µM

N#Cc1nc2c(nc1N1CCC(F)(F)CC1)-c1ccccc1C2=O
IC50 [1]: > 100 µM

C[C@H](CC(N)=O)[C@H]1CC[C@H]2[C@@H]3CC[C@@H]4C[C@H](O)CC[C@]4(C)[C@H]3CC[C@]12C
IC50 [3]: 27.9 µM | CC50 (HCT-116): 24.5 µM

CC(=O)c1cc([N+](=O)[O-])c(Sc2ccc(Cl)cc2Cl)s1
IC50 [2]: 6.5 µM

CCOc1nc2c(nc1C#N)C(=O)c1ccccc1-2
IC50 [5]: > 100 µM | IC50 [6]: > 100 µM

COC(=O)C[C@@H](C)[C@H]1CC[C@H]2[C@@H]3CC[C@@H]4C[C@H](O)CC[C@]4(C)[C@H]3CC[C@]12C
IC50 [3]: > 50 µM | CC50 (HCT-116): 20.5 µM

C[C@@]12CCCc3coc(c31)C(=O)c1cc3c(cc12)[C@@]1(O)C[C@@H](O)N2CCS(=O)(=O)C(=C21)C3=O
IC50 [8]: > 5 µM

C[C@H](CC(=O)NCC(=O)O)[C@H]1CC[C@H]2[C@@H]3CC[C@@H]4C[C@H](O)CC[C@]4(C)[C@H]3CC[C@]12C
IC50 [3]: > 50 µM | CC50 (HCT-116): > 100 µM

CC(=O)O[C@@H]1CC[C@@]2(C)[C@H](CC[C@@H]3[C@@H]2CC[C@]2(C)[C@@H]([C@H](C)CC(=O)O)CC[C@@H]32)C1
IC50 [3]: 5.8 µM | CC50 (HCT-116): 23.2 µM

C[C@H](CC(=O)NCC#N)[C@H]1CC[C@H]2[C@@H]3CC[C@@H]4C[C@H](O)CC[C@]4(C)[C@H]3C[C@H](O)[C@]12C
IC50 [3]: 7.4 µM | CC50 (HCT-116): 28 µM

CCO/C(O)=C(\C#N)c1nc2c(nc1C#N)C(=O)c1ccccc1-2
IC50 [5]: > 100 µM | IC50 [6]: > 100 µM

CC(=O)c1cc([N+](=O)[O-])c(Sc2ccc(Cl)cc2)s1
IC50 [2]: 11.8 µM

Nc1ncc(-c2ccccc2)cc1-c1ccc(O)cc1
IC50 [4]: 9.6 µM

CCc1c(-c2ccc(C(=O)N(C)C)cc2)cnc(N)c1-c1ccc(O)cc1
IC50 [7]: 75.6 µM

N#Cc1nc2c(nc1C#N)-c1ccccc1C2=O
IC50 [1]: 3.5 µM

COCCOc1nc2c(nc1C#N)C(=O)c1ccccc1-2
IC50 [1]: > 100 µM

C[C@H](CC(=O)N1CCOCC1)[C@H]1CC[C@H]2[C@@H]3CC[C@@H]4C[C@H](O)CC[C@]4(C)[C@H]3CC[C@]12C
IC50 [3]: > 100 µM | CC50 (HCT-116): 8.2 µM

CCc1c(-c2ccc(O)cc2)cnc(N)c1-c1cccc(C)c1
IC50 [7]: > 63.3 µM

N#Cc1nc2c(nc1N)-c1ccccc1C2=O
IC50 [1]: > 100 µM

CC(=O)c1cc([N+](=O)[O-])c(Sc2cc(Cl)cc(Cl)c2)s1
IC50 [2]: 6.4 µM
